Where two headings read alike, the source gives them in different places.
Tests used:
[1] = test system: miR-208; test: miRNA expression in vehicle-, metformin- and ginsenoside Rb1-treated HSPCs; assay type: cell-based, human
Excerpt: The abundance of let-7, miR-30 miR-144 and miR-132 were expressed 40.1-, 2.2-, 5.0- and 18.3-fold higher than miR-208, whereas miR-208 was expressed 1.6- and 2.1-fold higher than miR-199 and miR-499. MiR-26a (induced by metformin) expression was 1.4-fold higher than miR-208.

[2] = test system: NLK 3′UTR; test: Luciferase fused to NLK 3′UTR in differentiating HSPCs; assay type: cell-based, human
Experimental: We generated a series of truncated NLK 3′UTRs fused to the luciferase gene and transduced them into control and RPS19-insufficient differentiating HSPCs. Cells were treated with increasing concentrations of ginsenoside Rb1 or metformin and luciferase activity assessed.

[3] = test system: NLK; test: NLK expression in differentiating human progenitors (qRT-PCR, Western blot); assay type: cell-based; set-up: reduction of endogenous NLK expression: concentration or dose not given beside the values
[4] = test system: c-Kit+ erythroid progenitors in murine RPS19-insufficiency; test: c-Kit+ erythroid expansion screen, tet-shRPS19 murine fetal liver cells (Cell titer-Glo); assay type: cell-based, mouse; details: for rescue of c-Kit+ erythroid expansion: 10 μM, murine RPS19-insufficient model; for EC50: read-out: EC50 of rescue of erythroid growth in murine RPS19-insufficiency
[5] = test system: murine NLK 3′UTR; test: Luciferase fused to murine NLK 3′UTR in K562 cells; assay type: cell-based, mouse; details: transient transfection in K562, metformin 72 hrs
[6] = test system: BFU-E erythroid and CFU-GM myeloid colonies; test: Colony assays in methylcellulose (BFU-E, CFU-GM); assay type: cell-based, human; details: metformin
Experimental: FIG. 9. Metformin improves expansion of CD235+ erythroblasts and BFU-E erythroid colony formation in human RPS19- and RPL11-insufficiency from CB CD34+ progenitors. (Panel A). CD34+ HSPCs were transduced with shRNA against control (shLuc), RPS19 (shRPS19) or RPL11 (shRPL11) and after sorting, were differentiated for 14 days in the presence or absence of 50 mM metformin. Cells were counted and the percentage expressing CD235+ erythroid (left) and CD11b+ myeloid (right) was determined by flow cytometry. Obtained values were multiplied to give an overall number that was normalized to the untreated control (grey columns). Values are presented as a percentage of the untreated control. (Panel B) Direct comparison between metformin treated and untreated cultures is facilitated by normalizing the metformin-treated values to the untreated values in control, RPS19- and RPL11-insufficient groups. Values are expressed as a fold induction relative to untreated. (Panel C) Transduced and sorted CD34+ progenitors were cultured in methylcellulose in the presence or absence of metformin for 16 days and BFU-E erythroid (left) and CFU-GM myeloid (right) colonies scored. Values are represented as the percentage of colonies induced in untreated controls (grey columns). (Panel D). To directly compare the effect of metformin in each group, metformin-treated cultures were normalized to untreated cultures and are expressed as a fold induction of the untreated control. (Panel E) Representative images of BFU-E colonies at day 14.Scale bar=[…]. […] Statistics: two-tailed Student's t test, significant *P<0.05
Sorted hematopoietic cells were seeded in methylcellulose medium containing IL-3, stem cell factor, granulocyte macrophage colony-stimulating factor, and erythropoietin (H4434; […] Technologies) in triplicate, with 1000 cells per plate. Erythroid (burst-forming unit erythroid) and myeloid (colony-forming unit, granulocyte-macrophage) colonies were counted 14-18 days later. In some cases, 3000 (shRPL11) or 5000 (shRPS19+TGFβ) cells per plate were added to ensure enough colonies for robust statistical analysis.
Sorted HSPCs were seeded in cytokine-containing methylcellulose medium (H4434; […] Technologies) in triplicate, with 1000 cells per plate. Erythroid (burst-forming unit erythroid) and myeloid (colony-forming unit, granulocyte-macrophage) colonies were counted 14-18 days later.

[7] = ginsenoside Rb1, metformin, alone and combined

CC(C)=CCC[C@](C)(O[C@@H]1O[C@H](CO[C@@H]2O[C@H](CO)[C@@H](O)[C@H](O)[C@H]2O)[C@@H](O)[C@H](O)[C@H]1O)[C@H]1CC[C@]2(C)[C@@H]1[C@H](O)C[C@@H]1[C@@]3(C)CC[C@H](O[C@@H]4O[C@H](CO)[C@@H](O)[C@H](O)[C@H]4O[C@@H]4O[C@H](CO)[C@@H](O)[C@H](O)[C@H]4O)C(C)(C)[C@@H]3CC[C@]12C [ginsenoside Rb1]
induction of miR-208 ([1]; ginsenoside Rb1-treated HSPCs): 1.9 fold | reduction of luciferase activity (NLK 3′UTR) ([2]; 50 mM ginsenoside Rb1): 35.9% | reduction of NLK protein ([3]; differentiating HSPCs, 5 mM): 31.5% | suppression of NLK expression [3, 7]: 34.6% | reduction of endogenous NLK expression ([3]; ginsenoside Rb1-treated differentiating HSPCs (miRNA sponge experiment)): 44.8% | suppression of NLK expression ([3]; miRNA species transduced into differentiating HSPCs, ginsenoside Rb1 for comparison): 34.6%

Fc1ccc(Cl)cc1-c1nc(Nc2ccncc2)c2nccnc2n1 [SD208]
rescue of c-Kit+ erythroid expansion [4]: significantly rescued | EC50 [4]: 700 nM

CN(C)C(=N)N=C(N)N [metformin]
induction of miR-499, miR-208, miR-132 ([1]; metformin-treated HSPCs): None of these miRNAs were induced | reduction of luciferase activity (NLK 3′UTR) ([2]; metformin): 67.5% | decrease of luciferase activity, murine 3′UTR [5]: 61.6% | suppression of NLK expression [3, 7]: 59.4% | fold increase of BFU-E colonies ([6]; RPL11-insufficiency): 2.2 fold | BFU-E erythroid colonies, % of vector control (shLuc) ([6]; RPL11-insufficiency, 8.2% untreated): 14.3% | fold increase of BFU-E colonies ([6]; RPS19-insufficiency): 2.9 fold | BFU-E erythroid colonies, % of vector control (shLuc) ([6]; RPS19-insufficiency, 7.7% untreated): 16.3% | size of BFU-E colonies ([6]; RPS19-insufficient progenitors): only modestly improve | effect on CFU-GM colonies [6]: did not affect

NC(=O)c1ccc(-c2nc(-c3ccc4c(c3)OCO4)c(-c3ccccn3)[nH]2)cc1 [SB431542]
rescue of c-Kit+ erythroid expansion [4]: significantly rescued | EC50 ([4]; Mus musculus): 5000 nM
